Calls of active or inactive are those of the source. The calls are words filed in the database; no cut-off is given here.
How the values were obtained:
[1] = Toxicity in Balb/c mouse assessed as effect on spleen at 100 mg/kg by H and E staining based analysis; assay type: organism-based; settings: in vivo
[2] = system: A2780; assay: Downregulation of COX1 level in human A2780 cells by Western blot analysis; assay type: functional, cell-based; settings: dose <= 500.0 nM
[3] = system: A2780; assay: Inhibition of mitochondrial transcript in human A2780 cells assessed as decrease in ND1 expression by RT-qPCR analysis; assay type: functional, cell-based
[4] = system: A2780; assay: Induction of cell cycle arrest in human A2780 cells assessed as accumulation of cells at S phase at 200 nM measured after 96 hrs by PI staining based flow cytometry analysis (reference value: 14.7%); assay type: functional
[5] = system: A2780; assay: Antitumor activity against human A2780 cells xenografted in BALB/c nude mouse model assessed as effect on liver 100 mg/kg, po measured after 27 days; assay type: functional, organism-based; settings: time 27.0 day
[6] = system: HepG2; assay: Antiproliferative activity against human HepG2 cells incubated for 168 hrs by SRB method; assay type: functional, cell-based; settings: HepG2, 168 h
[7] = AUC (0 to t) in ICR mouse at 1 mg/kg, iv measured upto 24 hrs by LC-MS/MS analysis; assay type: ADME, organism-based; design: time < 24 hrs, dose 1 mg/kg, route iv; settings: in vivo
[8] = MRT in ICR mouse at 10 mg/kg, po measured upto 24 hrs by LC-MS/MS analysis; assay type: ADME, organism-based; settings: in vivo
[9] = system: A2780; assay: Inhibition of colony formation in human A2780 cells assessed as appearance of smaller colonies at upto 500 nM incubated for 14 days by crystal violet staining based analysis; assay type: functional, cell-based; settings: time 14.0 day
[10] = Half life in ICR mouse at 10 mg/kg, po measured upto 24 hrs by LC-MS/MS analysis; assay type: ADME, organism-based; settings: in vivo
[11] = system: A2780; assay: Induction of cell cycle arrest in human A2780 cells assessed as accumulation of cells at G1 phase at 100 nM measured after 96 hrs by PI staining based flow cytometry analysis (reference value: 80.81%); assay type: functional
[12] = system: A549; assay: Antiproliferative activity against human A549 cells incubated for 168 hrs by SRB method; assay type: functional, cell-based; settings: A549, 168 h
[13] = system: A2780; assay: Antitumor activity against human A2780 cells xenografted in BALB/c nude mouse model assessed as reduction in mitochondrial DNA transcript level at 50 to 100 mg/kg, po administered daily; assay type: functional, organism-based; settings: dose 50-100 mg/kg
[14] = Efflux ratio of apparent permeability across basolateral to apical side over apical to basolateral side in human Caco2 cells at 3 uM incubated for 2 hrs by LC-MS/MS analysis; assay type: ADME, cell-based; settings: Caco-2
[15] = Acute toxicity in Balb/c mouse assessed as effect on kidney 100 mg/kg measured after 27 days by H and E staining based analysis; assay type: organism-based; settings: in vivo, 648 h, time 27 day
[16] = Apparent permeability across basolateral side to apical side in human Caco-2 cells at 3 uM incubated for 2 hrs by LC-MS/MS analysis; assay type: ADME, cell-based
[17] = system: A2780; assay: Antitumor activity against human A2780 cells xenografted in BALB/c nude mouse model assessed as reduction in tumor weight at 100 mg/kg, po administered daily and measured after 27 days relative to control; assay type: functional; design: scale not given: the % may be the effect or the level left; settings: time 27 day
[18] = system: A2780; assay: Effect on ATP5A level in human A2780 cells at upto 500 nM by Western blot analysis; assay type: functional, cell-based
[19] = system: A2780; assay: Inhibition of MT-ATP6 expression in human A2780 cells at 100 nM incubated for 12 hrs by RNA sequencing analysis; assay type: functional, cell-based
[20] = system: A2780; assay: Antitumor activity against human A2780 cells xenografted in BALB/c nude mouse model assessed as decrease in tumor volume administered po daily and measured after 27 days; assay type: functional, organism-based; settings: dose 50-100 mg/kg, time 27.0 day
[21] = biological target: Cytochrome P450 2C9 (Homo sapiens, UniProt P11712); assay: Inhibition of CYP2C9 (unknown origin) using diclofenac as substrate in presence of NADPH by LC/MS/MS analysis; assay type: ADME
Cytochrome P450 2C9, sequence (P11712 whole entry): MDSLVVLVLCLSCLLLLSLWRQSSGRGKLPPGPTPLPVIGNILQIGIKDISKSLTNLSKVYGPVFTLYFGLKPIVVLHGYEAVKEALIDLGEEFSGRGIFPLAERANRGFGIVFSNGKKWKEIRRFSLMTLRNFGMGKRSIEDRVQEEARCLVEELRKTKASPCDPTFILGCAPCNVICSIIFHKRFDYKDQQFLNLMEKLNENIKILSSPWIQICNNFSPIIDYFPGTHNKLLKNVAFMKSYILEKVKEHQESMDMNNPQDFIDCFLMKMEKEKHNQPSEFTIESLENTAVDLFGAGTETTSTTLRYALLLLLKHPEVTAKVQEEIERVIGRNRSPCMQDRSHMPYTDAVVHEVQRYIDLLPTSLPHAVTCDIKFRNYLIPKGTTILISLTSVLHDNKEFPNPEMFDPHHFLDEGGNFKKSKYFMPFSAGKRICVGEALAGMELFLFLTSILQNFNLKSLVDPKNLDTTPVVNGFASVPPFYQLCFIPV

[22] = system: A2780; assay: Induction of apoptosis in human A2780 cells assessed as viable cells at 100 nM incubated for 96 hrs by Annexin-V/FITC and PI staining based flow cytometry analysis (reference value: 89.2%); assay type: functional; settings: read-out: Activity
[23] = Toxicity in Balb/c mouse assessed as effect on liver at 100 mg/kg by H and E staining based analysis; assay type: organism-based; settings: in vivo
[24] = Clearance in ICR mouse at 1 mg/kg, iv measured upto 24 hrs by LC-MS/MS analysis; assay type: ADME, organism-based; settings: in vivo
[25] = system: MDA-MB-468; assay: Antiproliferative activity against human MDA-MB-468 cells incubated for 168 hrs by SRB method; assay type: functional, cell-based; settings: MDA-MB-468, 168 h
[26] = system: A2780; assay: Induction of apoptosis in human A2780 cells assessed as early apoptotic cells at 200 nM incubated for 96 hrs by Annexin-V/FITC and PI staining based flow cytometry analysis (reference value: 14.14%); assay type: functional
[27] = system: A2780; assay: Induction of apoptosis in human A2780 cells assessed as necrotic cells at 50 nM incubated for 96 hrs by Annexin-V/FITC and PI staining based flow cytometry analysis (reference value: 2.07%); assay type: functional
[28] = system: A2780; assay: Effect on POLRMT mRNA level in human A2780 cells by RT-qPCR analysis; assay type: functional, cell-based
[29] = system: A2780; assay: Inhibition of MT-ND4 expression in human A2780 cells at 100 nM incubated for 12 hrs by RNA sequencing analysis; assay type: functional, cell-based
[30] = system: A2780; assay: Inhibition of MT-CO3 expression in human A2780 cells at 100 nM incubated for 12 hrs by RNA sequencing analysis; assay type: functional, cell-based
[31] = biological target: Cytochrome P450 3A4 (Homo sapiens, UniProt P08684); assay: Inhibition of […] (unknown origin) using testosterone as substrate in presence of NADPH by LC/MS/MS analysis; assay type: ADME
Cytochrome P450 3A4, sequence (P08684 whole entry): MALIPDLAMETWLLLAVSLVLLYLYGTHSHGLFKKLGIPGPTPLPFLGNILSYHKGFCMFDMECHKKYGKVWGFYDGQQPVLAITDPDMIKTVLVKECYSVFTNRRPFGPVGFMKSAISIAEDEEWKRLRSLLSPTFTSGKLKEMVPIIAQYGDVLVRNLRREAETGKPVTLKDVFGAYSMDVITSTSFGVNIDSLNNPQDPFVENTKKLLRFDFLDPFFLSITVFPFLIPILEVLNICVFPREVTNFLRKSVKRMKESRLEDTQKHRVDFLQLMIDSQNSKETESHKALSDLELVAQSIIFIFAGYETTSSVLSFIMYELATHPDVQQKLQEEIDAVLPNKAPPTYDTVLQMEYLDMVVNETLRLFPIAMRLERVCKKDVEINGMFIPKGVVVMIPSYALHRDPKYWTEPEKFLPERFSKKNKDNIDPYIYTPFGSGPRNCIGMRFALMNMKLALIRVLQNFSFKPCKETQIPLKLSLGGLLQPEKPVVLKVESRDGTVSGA

[32] = system: A2780; assay: Induction of mitochondrial membrane potential changes in human A2780 cells assessed as increase in Q3 phase at 0 to 5 uM measured after 96 hrs by flow cytometry analysis; assay type: functional, cell-based; settings: dose 0-5 µM
[33] = Toxicity in Balb/c mouse assessed as effect on body weight loss at 50 to 100 mg/kg, po measured after 27 days; assay type: organism-based; settings: in vivo, 648 h, dose 50-100 mg/kg, time 27 day
[34] = system: A2780; assay: Induction of cell cycle arrest in human A2780 cells assessed as accumulation of cells at G2 phase at 50 nM measured after 96 hrs by PI staining based flow cytometry analysis (reference value: 4.49%); assay type: functional
[35] = system: A2780; assay: Induction of cell cycle arrest in human A2780 cells assessed as accumulation of cells at G1 phase at 200 nM measured after 96 hrs by PI staining based flow cytometry analysis (reference value: 80.81%); assay type: functional
[36] = system: A2780; assay: Inhibition of MT-ND2 expression in human A2780 cells at 100 nM incubated for 12 hrs by RNA sequencing analysis; assay type: functional, cell-based
[37] = system: A2780; assay: Induction of intracellular ROS generation in human A2780 cells at 0 to 5 uM by DCFH-DA staining based microscopic analysis; assay type: functional, cell-based; settings: dose 0-5 µM
[38] = system: A2780; assay: Inhibition of mitochondrial transcript in human A2780 cells assessed as decrease in COX1 expression by RT-qPCR analysis; assay type: functional, cell-based
[39] = Antiproliferative activity against human PBMC cells incubated for 168 hrs by SRB method; assay type: functional, cell-based

SMILES: Cc1ccc(-c2cc(=O)oc3cc(O[C@H](C)C(=O)N4CC5CCC(C4)N5C)ccc23)c(C)c1
- Activity [1]: Non-Toxic
- Activity [2]: Dose-Dependent Effect
- inhibition [3]: Active
- Activity [4]: 9.07%
- Activity [5]: inactive
- IC50 [6]: 152 nM
- AUC(0-t) at 24 h [7]: 424 ng·h/mL
- MRT [8]: 3.3 h
- inhibition [9]: Active
- half-life [10]: 2.3 h
- Activity [11]: 87.12%
- IC50 [12]: 721 nM
- Activity [13]: Active
- efflux ratio at 2 h, 3 µM [14]: 1.2
- Activity [15]: Non-Toxic
- Papp B→A at 2 h, 3 µM [16]: 8.3 ×10⁻⁶ cm/s
- Activity [17]: 68.66%
- Activity [18]: inactive
- inhibition [19]: Active
- Activity [20]: Dose-Dependent Effect
- IC50 [21]: 34700 nM
- viability at 0.1 µM [22]: 90.2%
- Activity [23]: Non-Toxic
- clearance [24]: 38.2 mL/min/kg
- IC50 [25]: 132 nM
- Activity [26]: 0.73%
- Activity [27]: 2.29%
- Activity [28]: inactive
- inhibition [29]: Active
- inhibition [30]: Active
- IC50 [31]: 30800 nM
- Activity [32]: inactive
- Activity [33]: Non-Toxic
- Activity [34]: 3.7%
- Activity [35]: 87.77%
- inhibition [36]: Active
- Activity [37]: inactive
- inhibition [38]: Active
- IC50 [39]: > 50000 nM
